Data set [1] in a line: Discoloration on exposure to light or heat. The class given is physicochemical. As to conditions: in the presence of light. An excerpt:
It has been discovered that BIRB 796 may lead to discoloration of a core tablet in which it is contained when that core tablet is exposed to light or heat. […] Tablet coatings preferably comprise 2-3%, more preferably about 2.5%, by weight of the BIRB 796 tablet. Masking of the color change may also be used to create a pharmaceutically acceptable dosage form, as for example, mixing dry colorants (including yellow no. 10 iron oxide lake) into the formulation.

The subject of data set [2] is proinflammatory cytokines, such as tumor necrosis factor (TNF) and interleukin-1 (IL-1). The conditions noted are these: disclosed in PCT/US99/29165 and U.S. Pat. No. 6,319,921; cited from earlier work.
A short description of data set [3]: Solubility of BIRB 796 drug substance. The class given is physicochemical. The conditions noted are these: for solubility: polymorphic drug substance (Form IV). As to the method:
(§1) At least seven polymorphs of BIRB 796 have been isolated (the melt point of the drug is about 152° C. and the pKa about 6.1). The polymorphs generally exist in the form of elongated needles. BIRB 796 is relatively poorly soluble in physiological environments. The solubility of polymorphic BIRB 796 drug substance (Form IV) has been determined to be about 0.5 ug/ml at pH 7.4 and about 10 mg/ml at pH 2.0.

Another data set can be described thus: pKa of the drug. The class given is physicochemical. The method, then: as §1

The values that follow come from US6808721B2, “Methods for coating pharmaceutical core tablets” (Boehringer Ingelheim Pharmaceuticals, Inc., priority 2001, dated 2004).

Values after ≈ are worked out from the molar mass of the structure shown.

A word on the solubility: it is the concentration that dissolves in the medium under given conditions. Higher therefore signals a readily soluble substance. As usually defined, the pKa is the pH at which an ionisable group is half protonated. A low value points to a group that gives up its proton readily. On to `Cc1ccc(-n2nc(C(C)(C)C)cc2NC(=O)Nc2ccc(OCCN3CCOCC3)c3ccccc23)cc1` [BIRB 796, 1-(5-tert-butyl-2-p-tolyl-2H-pyrazol-3-yl)-3-[4-(2-morpholin-4-yl-ethoxy)-naphthalen-1-yl]-urea], for which the discoloration entry in data set [1] is “tendency to discolor in the presence of light”. The “inhibitory activity with respect to proinflammatory cytokines” value in data set [2] is on record as “unexpectedly significant inhibitory activity”. Also, the solubility in data set [3] (aqueous buffer, pH 7.4) is around 0.5 µg/mL (≈ 0.000948 mM); in data set [3] (simulated gastric fluid, pH 2.0) it was around 10000 µg/mL (≈ 19 mM). Moreover, the aqueous solubility entry in data set [3] (in words) is listed as “poor aqueous solubility”. This compound showed a pKa in “pKa of the drug” of around 6.1.
